Measurements published in US20090304692A1, “TRIAZINE COMPOUNDS AS PI3 KINASE AND MTOR INHIBITORS” (Wyeth, priority 2008, published 2009).
Several values for one entry are separate records, joined by “and”; a condition that tells them apart may be missing. Equal entries are not always repeated. Where two headings read alike, the source gives them in different places.

Experiments:
Human mTOR (FLAG-TOR) = Human mTOR (FLAG-TOR) (Homo sapiens, UniProt P42345); experiment: mTOR kinase assay (DELFIA format, purified enzyme); type: biochemical; conditions: read-out: IC50 mTOR
Sequence of Human mTOR (FLAG-TOR) (P42345 1360-2549 limits assumed): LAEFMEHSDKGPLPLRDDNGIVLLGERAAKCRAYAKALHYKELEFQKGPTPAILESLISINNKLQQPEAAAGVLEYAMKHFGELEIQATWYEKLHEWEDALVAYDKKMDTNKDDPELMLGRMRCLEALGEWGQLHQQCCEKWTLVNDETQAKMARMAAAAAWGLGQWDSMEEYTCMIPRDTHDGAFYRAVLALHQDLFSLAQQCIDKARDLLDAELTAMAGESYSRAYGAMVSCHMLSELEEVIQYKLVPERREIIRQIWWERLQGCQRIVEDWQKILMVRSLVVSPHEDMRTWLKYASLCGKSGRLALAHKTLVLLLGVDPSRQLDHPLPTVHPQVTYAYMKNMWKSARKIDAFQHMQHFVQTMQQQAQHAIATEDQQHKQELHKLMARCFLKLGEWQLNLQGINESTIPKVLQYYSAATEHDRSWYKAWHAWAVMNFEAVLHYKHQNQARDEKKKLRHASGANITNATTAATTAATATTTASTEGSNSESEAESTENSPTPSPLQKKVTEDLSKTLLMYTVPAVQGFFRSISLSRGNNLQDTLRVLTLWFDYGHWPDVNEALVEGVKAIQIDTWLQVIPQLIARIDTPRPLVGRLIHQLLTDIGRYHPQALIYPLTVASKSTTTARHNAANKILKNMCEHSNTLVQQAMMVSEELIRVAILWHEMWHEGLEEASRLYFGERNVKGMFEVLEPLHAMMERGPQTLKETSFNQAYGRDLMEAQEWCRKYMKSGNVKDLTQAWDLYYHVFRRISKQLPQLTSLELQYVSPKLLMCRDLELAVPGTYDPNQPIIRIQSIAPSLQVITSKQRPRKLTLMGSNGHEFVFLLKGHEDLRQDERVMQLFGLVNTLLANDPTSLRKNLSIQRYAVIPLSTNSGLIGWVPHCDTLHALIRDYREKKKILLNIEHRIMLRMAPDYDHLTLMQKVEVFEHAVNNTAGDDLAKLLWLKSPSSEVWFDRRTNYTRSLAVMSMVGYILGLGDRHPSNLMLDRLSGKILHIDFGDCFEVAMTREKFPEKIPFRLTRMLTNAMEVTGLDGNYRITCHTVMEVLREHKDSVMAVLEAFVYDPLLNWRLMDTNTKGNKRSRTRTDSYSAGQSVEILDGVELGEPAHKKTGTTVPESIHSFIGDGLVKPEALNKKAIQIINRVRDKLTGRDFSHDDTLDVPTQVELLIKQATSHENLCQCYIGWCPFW

[1] = test system: human breast MDA-MB-361 tumor cell line; experiment: In vitro cell culture growth assay (MTS), MDA-MB-361; type: cell-based; conditions: Homo sapiens, MTS cell growth assay, three days after drug treatment, read-out: IC50 MDA-MB-361
[2] = test system: human prostate PC3-mm2 tumor cell line; experiment: In vitro cell culture growth assay (MTS), PC3-mm2; type: cell-based; conditions: Homo sapiens, PC3MM2, 72 h, MTS cell growth assay, three days after drug treatment, read-out: IC50 PC3-mm2
PI3K-α = PI3K-α (Homo sapiens, UniProt P42336); experiment: PI3K-alpha fluorescence polarization assay; conditions: read-out: IC50 PI3Kα
Sequence of PI3K-α (P42336 whole entry, species assumed): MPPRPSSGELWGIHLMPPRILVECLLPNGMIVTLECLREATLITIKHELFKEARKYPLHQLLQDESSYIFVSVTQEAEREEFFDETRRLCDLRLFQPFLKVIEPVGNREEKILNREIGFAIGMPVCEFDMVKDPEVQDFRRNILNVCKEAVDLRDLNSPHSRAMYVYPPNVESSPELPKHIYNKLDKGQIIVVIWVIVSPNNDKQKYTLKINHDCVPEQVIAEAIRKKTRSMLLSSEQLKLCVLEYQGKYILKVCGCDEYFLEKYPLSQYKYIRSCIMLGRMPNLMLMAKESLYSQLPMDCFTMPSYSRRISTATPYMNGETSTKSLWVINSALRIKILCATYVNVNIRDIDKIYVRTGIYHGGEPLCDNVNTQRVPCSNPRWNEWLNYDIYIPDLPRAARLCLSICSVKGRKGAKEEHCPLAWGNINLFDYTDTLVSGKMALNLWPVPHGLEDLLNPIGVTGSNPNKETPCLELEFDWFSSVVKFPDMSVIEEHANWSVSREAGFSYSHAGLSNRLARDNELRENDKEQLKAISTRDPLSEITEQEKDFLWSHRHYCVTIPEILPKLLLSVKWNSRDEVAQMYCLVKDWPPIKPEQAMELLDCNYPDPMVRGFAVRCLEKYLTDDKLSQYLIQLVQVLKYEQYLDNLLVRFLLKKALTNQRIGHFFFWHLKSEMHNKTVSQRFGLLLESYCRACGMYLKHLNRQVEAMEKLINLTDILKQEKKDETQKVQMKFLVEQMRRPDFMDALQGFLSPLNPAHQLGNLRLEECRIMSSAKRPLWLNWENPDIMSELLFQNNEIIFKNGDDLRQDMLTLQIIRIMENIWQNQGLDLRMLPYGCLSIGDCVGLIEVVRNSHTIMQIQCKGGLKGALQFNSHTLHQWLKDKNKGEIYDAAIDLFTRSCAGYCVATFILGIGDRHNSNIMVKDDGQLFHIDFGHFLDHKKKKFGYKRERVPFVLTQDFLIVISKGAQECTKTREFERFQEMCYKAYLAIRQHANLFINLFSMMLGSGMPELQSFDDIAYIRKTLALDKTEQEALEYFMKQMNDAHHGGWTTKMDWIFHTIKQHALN
Sequence of PI3K-α (P27986 whole entry partner, species assumed): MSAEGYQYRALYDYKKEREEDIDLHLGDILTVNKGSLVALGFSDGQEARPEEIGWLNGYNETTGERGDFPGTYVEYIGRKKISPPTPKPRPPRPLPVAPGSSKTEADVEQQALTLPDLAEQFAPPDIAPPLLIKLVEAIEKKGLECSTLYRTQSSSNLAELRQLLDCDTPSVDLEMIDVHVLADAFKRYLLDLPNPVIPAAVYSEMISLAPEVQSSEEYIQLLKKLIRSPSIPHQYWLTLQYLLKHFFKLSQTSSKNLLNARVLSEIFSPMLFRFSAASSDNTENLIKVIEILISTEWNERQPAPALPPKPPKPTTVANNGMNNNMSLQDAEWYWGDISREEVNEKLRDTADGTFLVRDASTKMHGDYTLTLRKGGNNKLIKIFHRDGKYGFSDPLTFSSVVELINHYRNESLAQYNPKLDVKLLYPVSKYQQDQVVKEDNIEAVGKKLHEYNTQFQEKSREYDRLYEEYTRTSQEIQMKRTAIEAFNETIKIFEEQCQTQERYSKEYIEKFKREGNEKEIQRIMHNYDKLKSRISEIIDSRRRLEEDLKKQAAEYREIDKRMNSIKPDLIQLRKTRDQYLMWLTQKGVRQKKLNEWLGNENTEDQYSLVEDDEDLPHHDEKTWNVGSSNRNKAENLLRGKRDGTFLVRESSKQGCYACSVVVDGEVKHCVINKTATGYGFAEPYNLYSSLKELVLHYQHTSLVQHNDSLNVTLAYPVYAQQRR

PI3K-γ = PI3K-γ (Homo sapiens, UniProt P48736); experiment: PI3K-gamma fluorescence polarization assay; conditions: read-out: IC50 PI3Kγ
Sequence of PI3K-γ (P48736 whole entry, species assumed): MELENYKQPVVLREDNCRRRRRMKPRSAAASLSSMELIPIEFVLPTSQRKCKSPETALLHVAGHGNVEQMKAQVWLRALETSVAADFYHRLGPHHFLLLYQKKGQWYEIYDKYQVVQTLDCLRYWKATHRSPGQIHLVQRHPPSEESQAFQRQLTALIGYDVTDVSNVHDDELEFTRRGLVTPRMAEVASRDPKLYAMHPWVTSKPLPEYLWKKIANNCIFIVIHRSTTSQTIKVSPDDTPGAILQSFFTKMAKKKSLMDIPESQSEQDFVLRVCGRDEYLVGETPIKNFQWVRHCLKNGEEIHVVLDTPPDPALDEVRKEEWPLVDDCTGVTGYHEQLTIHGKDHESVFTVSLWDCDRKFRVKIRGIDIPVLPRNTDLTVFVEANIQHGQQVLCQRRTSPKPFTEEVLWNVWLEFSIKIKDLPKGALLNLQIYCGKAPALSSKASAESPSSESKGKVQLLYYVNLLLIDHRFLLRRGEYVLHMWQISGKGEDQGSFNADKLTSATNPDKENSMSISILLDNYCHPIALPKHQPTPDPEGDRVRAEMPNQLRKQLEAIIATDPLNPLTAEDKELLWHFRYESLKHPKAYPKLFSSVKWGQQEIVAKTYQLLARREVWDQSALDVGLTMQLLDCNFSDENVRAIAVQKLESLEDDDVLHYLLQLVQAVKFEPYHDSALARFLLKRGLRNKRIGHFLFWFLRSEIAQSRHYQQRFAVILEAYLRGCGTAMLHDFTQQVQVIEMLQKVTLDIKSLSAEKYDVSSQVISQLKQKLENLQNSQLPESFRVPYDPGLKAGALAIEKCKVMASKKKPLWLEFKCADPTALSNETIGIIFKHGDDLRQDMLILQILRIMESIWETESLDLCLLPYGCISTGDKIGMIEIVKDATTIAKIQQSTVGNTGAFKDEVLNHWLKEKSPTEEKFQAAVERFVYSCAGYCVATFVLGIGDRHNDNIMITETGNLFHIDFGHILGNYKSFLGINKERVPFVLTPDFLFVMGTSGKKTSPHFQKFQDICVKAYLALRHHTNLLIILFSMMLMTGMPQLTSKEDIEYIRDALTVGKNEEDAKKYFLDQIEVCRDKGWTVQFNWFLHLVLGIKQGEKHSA

[3] = MDA-MB-361, 72 h, MDA-MB-361 cells

| Compound | IC50 (Human mTOR (FLAG-TOR)) | IC50 ([1]; MDA-MB-361, 72 h) [nM] | IC50 [2] [nM] | IC50 (PI3K-α) [nM] | IC50 (PI3K-γ) [nM] | IC50 ([2]; PC3-mm2 cells) [nM] | IC50 [1, 3] [nM] | other results |
| --- | --- | --- | --- | --- | --- | --- | --- | --- |
| CC(C)c1nc(-c2ccc(NC(=O)Nc3ccc(C(=O)Nc4cccnc4)cc3)cc2)nc(N2CCOCC2)n1 [Example 310, 4-[({4-[4-(1-methylethyl)-6-morpholin-4-yl-1,3,5-triazin-2-yl]phenyl}carbamoyl)amino]-N-pyridin-3-ylbenzamide] | 5.9 nM | 44 | 117 | 14 | 82 |  |  |  |
| CC(C)c1nc(-c2ccc(NC(=O)Nc3ccc(C(=O)NC4CCC4)cc3)cc2)nc(N2CCOCC2)n1 [Example 311, N-cyclobutyl-4-[({4-[4-(1-methylethyl)-6-morpholin-4-yl-1,3,5-triazin-2-yl]phenyl}carbamoyl)amino]benzamide] | 12 nM | 126 | 366 | 40 | 125 |  |  |  |
| CCc1nc(-c2ccc(NC(=O)Nc3ccc(C(=O)N4CCC(c5ccccc5)CC4)cc3)cc2)nc(N2CCOCC2)n1 [Example 320, 1-[4-(4-ethyl-6-morpholin-4-yl-1,3,5-triazin-2-yl)phenyl]-3-{4-[(4-phenylpiperidin-1-yl)carbonyl]phenyl}urea] | 12.9 nM | 32.3 | 73.7 | 3.3 | 25 |  |  |  |
| CCc1nc(-c2ccc(NC(=O)Nc3ccc(C(=O)NCc4ccncc4)cc3)cc2)nc(N2CCOCC2)n1 [Example 321, 4-({[4-(4-ethyl-6-morpholin-4-yl-1,3,5-triazin-2-yl)phenyl]carbamoyl}amino)-N-(pyridin-4-ylmethyl)benzamide] | 16.5 nM | 106 | 325 | 25 | 116 |  |  |  |
| CC(C)Cc1nc(-c2ccc(NC(=O)Nc3ccc(C(=O)N4CCN(C)CC4)cc3)cc2)nc(N2CCOCC2)n1 [Example 322, 1-{4-[(4-methylpiperazin-1-yl)carbonyl]phenyl}-3-{4-[4-(2-methylpropyl)-6-morpholin-4-yl-1,3,5-triazin-2-yl]phenyl}urea] | 6 nM | 13 | 86 | 2.4 | 30 |  |  |  |
| CC(C)Cc1nc(-c2ccc(NC(=O)Nc3ccc(C(=O)N(C)CCN(C)C)cc3)cc2)nc(N2CCOCC2)n1 [Example 324, N-[2-(dimethylamino)ethyl]-N-methyl-4-[({4-[4-(2-methylpropyl)-6-morpholin-4-yl-1,3,5-triazin-2-yl]phenyl}carbamoyl)amino]benzamide] | 5.2 nM | 4 | 35 | 1 | 22 |  |  |  |
| O=C(Nc1ccc(-c2nc(N3CCOCC3)nc(N3C4CCC3COC4)n2)cc1)Nc1ccnc(-c2cccnc2)c1 [Example 336, 1-(2,3′-bipyridin-4-yl)-3-{4-[4-morpholin-4-yl-6-(3-oxa-8-azabicyclo[3.2.1]oct-8-yl)-1,3,5-triazin-2-yl]phenyl}urea] | 3.6 nM and 3.45 nM | 56 | 45 | 40 | 44 | 45 |  |  |
| Cc1ccc(-c2nc(-c3ccc(NC(=O)Nc4ccc(C(=O)N5CCN(C)CC5)cc4)cc3)nc(N3CCOCC3)n2)cc1 [Example 337, 1-{4-[4-(4-methylphenyl)-6-morpholin-4-yl-1,3,5-triazin-2-yl]phenyl}-3-{4-[(4-methylpiperazin-1-yl)carbonyl]phenyl}urea] | 70 nM and 70.5 nM | 142 | 373 | 7 | 98 | 373 | 142 | IC50 (PI3K-γ; listed as 533): 98.5 nM |
| Cc1ccc(-c2nc(-c3ccc(NC(=O)Nc4ccc(C(=O)N(C)CCN(C)C)cc4)cc3)nc(N3CCOCC3)n2)cc1 [Example 338, N-[2-(dimethylamino)ethyl]-N-methyl-4-[({4-[4-(4-methylphenyl)-6-morpholin-4-yl-1,3,5-triazin-2-yl]phenyl}carbamoyl)amino]benzamide] | 22 nM and 19 nM | 122 | 266 | 3 | 77 | 266 |  | IC50 (PI3K-γ; listed as 532): 76.5 nM |
| CCc1nc(-c2ccc(NC(=O)Nc3ccc(N4CCC(N(C)C)CC4)cc3)cc2)nc(N2CCOCC2)n1 [Example 341, 1-{4-[4-(dimethylamino)piperidin-1-yl]phenyl}-3-[4-(4-ethyl-6-morpholin-4-yl-1,3,5-triazin-2-yl)phenyl]urea] | 12 nM and 15.5 nM | 150 | 237 | 10 | 48 | 237 |  | IC50 (PI3K-α; listed as 529): 10.5 nM; IC50 (PI3K-γ; listed as 529): 48.5 nM |
| Cc1ccc(-c2nc(-c3ccc(NC(=O)Nc4ccc(C(=O)O)cc4)cc3)nc(N3CCOCC3)n2)cc1 [Example 342, 4-[({4-[4-(4-methylphenyl)-6-morpholin-4-yl-1,3,5-triazin-2-yl]phenyl}carbamoyl)amino]benzoic acid] | 6.6 nM and 9.3 nM | 1260 | 2430 | 20 | 127 | 2430 | 1260 | IC50 (PI3K-α; listed as 527): 20.5 nM |
| CN(C)C1CCN(c2ccc(NC(=O)Nc3ccc(-c4nc(-c5ccccc5)nc(N5CCOCC5)n4)cc3)cc2)CC1 [Example 345, 1-{4-[4-(dimethylamino)piperidin-1-yl]phenyl}-3-[4-(4-morpholin-4-yl-6-phenyl-1,3,5-triazin-2-yl)phenyl]urea] | 80 nM and 81.5 nM | 554 | 395 | 43 | 112 | 395 |  | IC50 (PI3K-α; listed as 535): 43.5 nM |
| O=C(Nc1ccc(-c2nc(N3CCOCC3)nc(N3C4CCC3COC4)n2)cc1)Nc1ccc(Cl)nc1 [Example 349, 1-(6-chloropyridin-3-yl)-3-{4-[4-morpholin-4-yl-6-(3-oxa-8-azabicyclo[3.2.1]oct-8-yl)-1,3,5-triazin-2-yl]phenyl}urea] | 2 nM | 87 | 81 | 59 | 163 | 81 |  | IC50 (PI3K-γ; listed as 749): 164 nM |
| CN(C)C1CCN(C(=O)c2ccc(NC(=O)Nc3ccc(-c4nc(C5CCOCC5)nc(N5CCOCC5)n4)cc3)cc2)CC1 [Example 350, 1-(4-{[4-(dimethylamino)piperidin-1-yl]carbonyl}phenyl)-3-{4-[4-morpholin-4-yl-6-(tetrahydro-2H-pyran-4-yl)-1,3,5-triazin-2-yl]phenyl}urea] | 0.89 nM |  | 8.5 | 1 | 7 | 8.5 | < 3.08 | IC50 (PI3K-α; listed as 478): 1.1 nM; IC50 (PI3K-γ; listed as 478): 6 nM; IC50 (PI3K-γ; listed as 510): 6.3 nM |
| Nc1ccc(NC(=O)Nc2ccc(-c3nc(N4CCOCC4)nc(N4CCOCC4)n3)cc2)cc1 [Example 351, 1-(4-aminophenyl)-3-[4-(4,6-dimorpholin-4-yl-1,3,5-triazin-2-yl)phenyl]urea] | 4.2 nM and 4.6 nM | 50 | 66 | 3 | 16 | 66 | 50 | IC50 (PI3K-γ; listed as 497): 19 nM |
| CC(C)c1nc(-c2ccc(NC(=O)Nc3ccc(-c4cncnc4)cc3)cc2)nc(N2CCOCC2)n1 [Example 487, 1-{4-[4-(1-methylethyl)-6-morpholin-4-yl-1,3,5-triazin-2-yl]phenyl}-3-(4-pyrimidin-5-ylphenyl)urea] | 1.8 nM |  |  | 32.3 | 27 | 339 |  | IC50 ([1]; 72 h, MDA-MB-361 cells): 175 nM |
| CC(C)c1nc(-c2ccc(NC(=O)Nc3ccc(C(=O)N4CCN(C(C)C)CC4)cc3)cc2)nc(N2CCOCC2)n1 [Example 491, 1-{4-[4-(1-methylethyl)-6-morpholin-4-yl-1,3,5-triazin-2-yl]phenyl}-3-(4-{[4-(1-methylethyl)piperazin-1-yl]carbonyl}phenyl)urea] | 1.1 nM |  |  | 3.5 | 17 | 35 | 8 |  |
| CC(C)(C)OC(=O)N1CC(Oc2nc(-c3ccc(NC(=O)Nc4ccncc4)cc3)nc(N3CCOCC3)n2)C1 [Example 494, tert-butyl 3-[(4-morpholin-4-yl-6-{4-[(pyridin-4-ylcarbamoyl)amino]phenyl}-1,3,5-triazin-2-yl)oxy]azetidine-1-carboxylate] | 4.2 nM |  |  | 16.5 | 104 | 276 |  | IC50 ([1]; 72 h, MDA-MB-361 cells): 115 nM |
| CN1CCN(C(=O)Nc2ccc(NC(=O)Nc3ccc(-c4nc(N5CCOCC5)nc(N5CCOCC5)n4)cc3)cc2)CC1 [Example 498, N-[4-({[4-(4,6-dimorpholin-4-yl-1,3,5-triazin-2-yl)phenyl]carbamoyl}amino)phenyl]-4-methylpiperazine-1-carboxamide] | 2.35 nM |  |  | < 1.7 | 2.5 | 16.5 | 4 |  |
